Read-outs that look alike come from different tables or passages of the source.
What was measured:
[1] = biological target: T1, BTK (Homo sapiens, UniProt Q06187); test: In Vitro BTK Kinase Assay: Btk-PolyGAT-LS Assay; type: biochemical; settings: active BTK enzyme 0.25 nM, polyGAT 100 nM, 30 minutes, TRF readout; read-out: In Vitro BTK Kinase Assay IC50 Score
T1 construct: purchased Upstate 14-552
Method in brief: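 Active BTK at 0.25 nM phosphorylated 100 nM fluorescein-polyGAT peptide at 10 μM ATP for 30 minutes. Buffer was Tris pH 7.5 with MgCl2, DTT, Triton X-100 and casein, and reactions were stopped with EDTA. Phospho-peptide was detected by Tb-PY20 antibody TR-FRET, and IC50 came from a four-parameter fit normalized to DMSO and EDTA controls.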

[2] = system: CD69 expression on CD19+ B cells in human whole blood; test: In Vitro whole blood CD69 Assay; type: cell-based; settings: B-cell, read-out: In Vitro HWB CD69 Assay IC50 Score
Method in brief: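 Heparinized healthy-donor human whole blood was preincubated with compound (0.1% DMSO) for 30 min at 37 °C. Stimulation used 0.1 µg/mL anti-IgD-dextran or 20 µg/mL rabbit F(ab′)2 anti-IgD for 18–22 h at 37 °C. CD69 on gated CD19+ B cells was then measured by flow cytometry.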

[3] = human heparinized whole blood, anti-human IgD stimulation overnight, CD19+ B cells, flow cytometry

T1 sequence (Q06187 whole entry): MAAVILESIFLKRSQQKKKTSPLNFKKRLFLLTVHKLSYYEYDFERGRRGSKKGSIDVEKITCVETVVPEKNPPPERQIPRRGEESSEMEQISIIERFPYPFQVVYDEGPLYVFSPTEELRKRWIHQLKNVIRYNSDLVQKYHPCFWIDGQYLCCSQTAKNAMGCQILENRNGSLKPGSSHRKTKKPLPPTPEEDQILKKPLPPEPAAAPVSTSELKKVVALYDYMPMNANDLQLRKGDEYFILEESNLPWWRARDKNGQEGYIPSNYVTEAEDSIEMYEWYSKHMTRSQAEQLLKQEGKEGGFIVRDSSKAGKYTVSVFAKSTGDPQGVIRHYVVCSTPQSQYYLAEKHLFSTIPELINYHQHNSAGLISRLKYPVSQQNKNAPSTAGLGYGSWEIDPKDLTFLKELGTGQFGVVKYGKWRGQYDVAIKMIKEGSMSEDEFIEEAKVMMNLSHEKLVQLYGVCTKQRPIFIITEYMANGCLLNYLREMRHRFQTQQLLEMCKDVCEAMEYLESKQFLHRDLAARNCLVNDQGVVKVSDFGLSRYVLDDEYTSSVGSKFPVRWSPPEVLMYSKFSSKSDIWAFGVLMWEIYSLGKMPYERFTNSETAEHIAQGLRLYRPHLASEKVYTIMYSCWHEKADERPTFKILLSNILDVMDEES

IC50 [1] [µM]	IC50 [2, 3] [µM]	SMILES	IC50 ([2]; Homo sapiens) [µM]
0.001 to 0.01	1 to 10	COCCOc1cn2nccc2c(-c2ccc(CNC(=O)c3noc(C(C)(C)C)n3)c(C)c2)n1 [Example 132, 5-(tert-butyl)-N-(4-(6-(2-methoxyethoxy)pyrazolo[1,5-a]pyrazin-4-yl)-2-methylbenzyl)-1,2,4-oxadiazole-3-carboxamide]	–
0.001 to 0.01	1 to 10	Cn1cc(-c2cn3nccc3c(-c3ccc(CNC(=O)c4nc(C(C)(C)C)co4)cc3F)n2)cn1 [Example 110, 4-(tert-butyl)-N-(3-fluoro-4-(6-(1-methyl-1H-pyrazol-4-yl)pyrazolo[1,5-a]pyrazin-4-yl)benzyl)oxazole-2-carboxamide]	–
< 0.001	< 1	Cn1cc(-c2cn3nccc3c(-c3ccc(CNC(=O)c4cnn(C(C)(C)C)c4)c(C(F)F)c3)n2)cn1 [Example 107, 1-(tert-butyl)-N-(2-(difluoromethyl)-4-(6-(1-methyl-1H-pyrazol-4-yl)pyrazolo[1,5-a]pyrazin-4-yl)benzyl)-1H-pyrazole-4-carboxamide]	–
< 0.001	< 1	Cn1cc(-c2cn3nccc3c(-c3ccc(CNC(=O)c4nc(C(C)(C)CF)no4)c(F)c3)n2)cn1 [Example 13, 3-(1-fluoro-2-methylpropan-2-yl)-N-(2-fluoro-4-(6-(1-methyl-1H-pyrazol-4-yl)pyrazolo[1,5-a]pyrazin-4-yl)benzyl)-1,2,4-oxadiazole-5-carboxamide]	–
0.001 to 0.01	< 1	Cn1cc(-c2cc3nccn3c(-c3ccc(CNC(=O)c4cn(C(C)(C)C)nn4)cc3)n2)cn1 [Example 59, 1-(tert-butyl)-N-(4-(7-(1-methyl-1H-pyrazol-4-yl)imidazo[1,2-c]pyrimidin-5-yl)benzyl)-1H-1,2,3-triazole-4-carboxamide]	–
< 0.001	< 1	Cn1cc(-c2cn3nccc3c(N3CCC(CNC(=O)c4noc(C(C)(C)C)n4)C(F)(F)C3)n2)cn1 (stereo not drawn) [Example 157, 5-(tert-butyl)-N-((3,3-difluoro-1-(6-(1-methyl-1H-pyrazol-4-yl)pyrazolo[1,5-a]pyrazin-4-yl)piperidin-4-yl)methyl)-1,2,4-oxadiazole-3-carboxamide]	–
< 0.001	< 1	Cn1cc(-c2cn3nccc3c(-c3ccc(CNC(=O)c4nnn(C(C)(C)C)n4)c(C(F)F)c3)n2)cn1 [Example 106, 2-(tert-butyl)-N-(2-(difluoromethyl)-4-(6-(1-methyl-1H-pyrazol-4-yl)pyrazolo[1,5-a]pyrazin-4-yl)benzyl)-2H-tetrazole-5-carboxamide]	–
0.001 to 0.01	1 to 10	Cn1cc(-c2cn3nccc3c(-c3ccc(CN4CCN(CC(C)(C)C)CC4=O)cc3)n2)cn1 [Example 33, 1-(4-(6-(1-methyl-1H-pyrazol-4-yl)pyrazolo[1,5-a]pyrazin-4-yl)benzyl)-4-neopentylpiperazin-2-one]	–
< 0.001	1 to 10	Cn1cc(-c2cn3nccc3c(-c3ccc(CNC(=O)c4cnn(C(C)(C)C)n4)cc3)n2)cn1 [Example 21, 2-(tert-butyl)-N-(4-(6-(1-methyl-1H-pyrazol-4-yl)pyrazolo[1,5-a]pyrazin-4-yl)benzyl)-2H-1,2,3-triazole-4-carboxamide]	–
< 0.001	< 1	Cn1cc(-c2cn3nccc3c(-c3ccc4c(c3)CN(C3COC3)CC[C@H]4NC(=O)c3cn(C(C)(C)C)nn3)n2)cn1 [Example 39, 1-tert-butyl-N-[(5R)-8-[6-(1-methylpyrazol-4-yl)pyrazolo[1,5-a]pyrazin-4-yl]-2-(oxetan-3-yl)-1,3,4,5-tetrahydro-2-benzazepin-5-yl]triazole-4-carboxamide]	–
0.001 to 0.01	1 to 10	Cn1cc(-c2cn3nccc3c(N3CCC(F)(CNC(=O)c4noc(C(C)(C)C)n4)CC3)n2)cn1 [Example 160, 5-(tert-butyl)-N-((4-fluoro-1-(6-(1-methyl-1H-pyrazol-4-yl)pyrazolo[1,5-a]pyrazin-4-yl)piperidin-4-yl)methyl)-1,2,4-oxadiazole-3-carboxamide]	–
0.001 to 0.01	1 to 10	Cn1cc(-c2cn3nccc3c(N3CCC(CNC(=O)c4cn(C(C)(C)C)nn4)CC3)n2)cn1 [Example 138, 1-(tert-butyl)-N-((1-(6-(1-methyl-1H-pyrazol-4-yl)pyrazolo[1,5-a]pyrazin-4-yl)piperidin-4-yl)methyl)-1H-1,2,3-triazole-4-carboxamide]	–
< 0.001	< 1	Cn1cc(-c2cn3nccc3c(-c3ccc(CNC(=O)c4cn(C(C)(C)C)nn4)c(F)c3F)n2)cn1 [Example 93, 1-(tert-butyl)-N-(2,3-difluoro-4-(6-(1-methyl-1H-pyrazol-4-yl)pyrazolo[1,5-a]pyrazin-4-yl)benzyl)-1H-1,2,3-triazole-4-carboxamide]	–
< 0.001	< 1	Cn1cc(-c2cn3nccc3c(-c3ccc(CNC(=O)c4noc(C(C)(C)CF)n4)cc3)n2)cn1 [Example 22, 5-(1-fluoro-2-methylpropan-2-yl)-N-(4-(6-(1-methyl-1H-pyrazol-4-yl)pyrazolo[1,5-a]pyrazin-4-yl)benzyl)-1,2,4-oxadiazole-3-carboxamide]	–
0.001 to 0.01	< 1	Cn1cc(-c2cn3nccc3c(N3CC[C@@H](CNC(=O)c4noc(C(C)(C)C)n4)[C@@H](F)C3)n2)cn1 (single isomer, unassigned) [Example 156]	–
< 0.001	< 1	Cn1cc(-c2cn3nccc3c(-c3ccc(CNC(=O)c4cn(C(C)(C)C)nn4)cc3)n2)cn1 [Example 4, 1-(tert-butyl)-N-(4-(6-(1-methyl-1H-pyrazol-4-yl)pyrazolo[1,5-a]pyrazin-4-yl)benzyl)-1H-1,2,3-triazole-4-carboxamide]	–
< 0.001	< 1	Cc1cc(-c2nc(-c3cnn(C)c3)cn3nccc23)ccc1CNC(=O)c1cn(C(C)(C)C)nn1 [Example 16, 1-(tert-butyl)-N-(2-methyl-4-(6-(1-methyl-1H-pyrazol-4-yl)pyrazolo[1,5-a]pyrazin-4-yl)benzyl)-1H-1,2,3-triazole-4-carboxamide]	–
< 0.001	< 1	Cn1cc(-c2cn3nccc3c(-c3cc(F)c(CNC(=O)c4nc(C(C)(C)C)no4)cc3F)n2)cn1 [Example 94, 3-(tert-butyl)-N-(2,5-difluoro-4-(6-(1-methyl-1H-pyrazol-4-yl)pyrazolo[1,5-a]pyrazin-4-yl)benzyl)-1,2,4-oxadiazole-5-carboxamide]	–
0.01 to 1	1 to 10	Cn1cc(-c2cn3nccc3c(N3CCC(C)(CNC(=O)c4noc(C5(C)CC5)n4)CC3)n2)cn1 [Example 46, N-((4-methyl-1-(6-(1-methyl-1H-pyrazol-4-yl)pyrazolo[1,5-a]pyrazin-4-yl)piperidin-4-yl)methyl)-5-(1-methylcyclopropyl)-1,2,4-oxadiazole-3-carboxamide]	–
< 0.001	< 1	Cn1cc(-c2cc3nccn3c(-c3ccc(CNC(=O)c4nc(C(C)(C)C)no4)cc3)n2)cn1 [Example 64, 3-(tert-butyl)-N-(4-(7-(1-methyl-1H-pyrazol-4-yl)imidazo[1,2-c]pyrimidin-5-yl)benzyl)-1,2,4-oxadiazole-5-carboxamide]	–
< 0.001	< 1	Cn1cc(-c2cn3nccc3c(-c3ccc(CNC(=O)c4nnn(C(C)(C)C)n4)c(F)c3F)n2)cn1 [Example 87, 2-(tert-butyl)-N-(2,3-difluoro-4-(6-(1-methyl-1H-pyrazol-4-yl)pyrazolo[1,5-a]pyrazin-4-yl)benzyl)-2H-tetrazole-5-carboxamide]	–
< 0.001	< 1	Cn1cc(-c2cc(-c3ccc(CNC(=O)c4cn(C(C)(C)C)nn4)c(F)c3)c3ccnn3c2)cn1 [Example 69, 1-(tert-butyl)-N-(2-fluoro-4-(6-(1-methyl-1H-pyrazol-4-yl)pyrazolo[1,5-a]pyridin-4-yl)benzyl)-1H-1,2,3-triazole-4-carboxamide]	–
0.001 to 0.01	1 to 10	Cn1cc(-c2cn3nccc3c(-c3ccc(CNC(=O)c4noc(C(C)(C)C)n4)nc3)n2)cn1 [Example 116, 5-(tert-butyl)-N-((5-(6-(1-methyl-1H-pyrazol-4-yl)pyrazolo[1,5-a]pyrazin-4-yl)pyridin-2-yl)methyl)-1,2,4-oxadiazole-3-carboxamide]	–

SMILES	IC50 [1] [µM]	IC50 [2, 3] [µM]	IC50 ([2]; Homo sapiens) [µM]
Cn1cc(-c2cn3nccc3c(-c3ccc(CNC(=O)c4nc(C(C)(C)C)no4)c(F)c3F)n2)cn1 [Example 89, 3-(tert-butyl)-N-(2,3-difluoro-4-(6-(1-methyl-1H-pyrazol-4-yl)pyrazolo[1,5-a]pyrazin-4-yl)benzyl)-1,2,4-oxadiazole-5-carboxamide]	< 0.001	–	< 1
